Assays:
HEK-293T = assay: Cytotoxicity against HEK293T cells assessed as cell viability after 48 hrs by MTT assay; type: cell-based; conditions: Homo sapiens
NIH3T3 = assay: Cytotoxicity against mouse NIH/3T3 cells assessed as cell viability after 48 hrs by MTT assay; type: cell-based; conditions: NIH3T3, 48 h
Plasmodium falciparum = assay: microbe, parasite or virus in culture; conditions: W2, 48 h
Description: Antiplasmodial activity against ring stage of chloroquine-resistant Plasmodium falciparum W2 infected in human RBC after 48 hrs by flow cytometric analysis

Papain = target: T1, Papain (Carica papaya, UniProt P00784); assay: Inhibition of papaya papain using Z-Leu-Leu-Arg-AMC as substrate after 30 mins by fluorescence microplate reader analysis
T1 sequence (P00784 whole entry): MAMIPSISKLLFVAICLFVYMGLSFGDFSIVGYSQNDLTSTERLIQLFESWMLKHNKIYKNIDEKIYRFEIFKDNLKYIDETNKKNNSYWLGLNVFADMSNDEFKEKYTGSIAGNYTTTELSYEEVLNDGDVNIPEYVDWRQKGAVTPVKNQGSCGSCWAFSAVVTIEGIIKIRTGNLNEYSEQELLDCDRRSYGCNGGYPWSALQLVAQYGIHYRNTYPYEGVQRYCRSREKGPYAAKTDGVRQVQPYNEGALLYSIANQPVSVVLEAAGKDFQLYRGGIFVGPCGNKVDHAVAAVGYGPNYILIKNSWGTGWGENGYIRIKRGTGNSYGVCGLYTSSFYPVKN

in vitro = conditions: human
Description: Selectivity index, ratio of IC50 for HEK293T cells to IC50 for ring stage of Plasmodium falciparum W2 infected in human RBC

[1] = Inhibition of Plasmodium falciparum falcipain-2 using Z-Leu-Arg-AMC as substrate preincubated for 10 mins followed by substrate addition by spectrofluorometric analysis

| SMILES | IC50 (HEK-293T) [µM] | IC50 (NIH3T3) [µM] | IC50 (Plasmodium falciparum) [nM] | IC50 (Papain) [µM] | selectivity ratio (in vitro) | IC50 [1] [µM] |
| --- | --- | --- | --- | --- | --- | --- |
| CCCCOc1c(NCCCC(C)Nc2cc(OC)cc3cccnc23)c(=O)c1=O (stereo not drawn) | > 50 | > 50 | 18600 | > 10 | > 2 | – |
| CCCCOc1c(NCCNc2ccnc3cc(Cl)ccc23)c(=O)c1=O | > 50 | > 50 | 2040 | > 10 | > 24 | > 10 |
| CCN(CC)CCCC(C)Nc1ccnc2cc(Cl)ccc12 (stereo not drawn) [CHLOROQUINE] | > 50 | > 50 | – | – | – | – |
| CCCCOc1c(N2CCN(c3ccnc4cc(Cl)ccc34)CC2)c(=O)c1=O | > 50 | > 50 | 7820 | > 10 | > 6 | – |
| O=c1c(NCCCCNc2ccnc3cc(Cl)ccc23)c(NCCCCNc2ccnc3cc(Cl)ccc23)c1=O | > 50 | > 50 | 95 | > 10 | > 526 | – |
| CCCCOc1c(OCCCC)c(=O)c1=O [SQUARIC ACID DIBUTYL ESTER] | – | – | 8840 | – | – | – |
| O=C(NCCNc1ccnc2cc(Cl)ccc12)[C@H](Cc1ccccc1)Nc1c(N[C@@H](Cc2ccccc2)C(=O)NCCNc2ccnc3cc(Cl)ccc23)c(=O)c1=O | > 50 | > 50 | 710 | > 10 | > 70 | > 50 |
| COc1cc(NC(C)CCCNc2c(NCCCC(C)Nc3cc(OC)cc4cccnc34)c(=O)c2=O)c2ncccc2c1 (stereo not drawn) | > 50 | > 50 | 2210 | – | > 22 | – |
| O=c1c(NCCNc2ccnc3cc(Cl)ccc23)c(NCCNc2ccnc3cc(Cl)ccc23)c1=O | 5 | 4.5 | 200 | > 10 | 25 | – |
| COc1c(NCCNc2ccnc3cc(Cl)ccc23)c(=O)c1=O | > 50 | > 50 | 1560 | > 10 | > 32 | > 10 |
| O=c1c(N2CCC(Nc3ccnc4cc(Cl)ccc34)CC2)c(N2CCC(Nc3ccnc4cc(Cl)ccc34)CC2)c1=O | > 50 | > 50 | 105 | – | > 476 | – |
| CCCCOc1c(NCCCNc2ccnc3cc(Cl)ccc23)c(=O)c1=O | – | – | > 10000 | > 10 | – | > 10 |
| COc1c(NCCCNc2ccnc3cc(Cl)ccc23)c(=O)c1=O | > 50 | > 50 | 1840 | > 10 | > 27 | – |
| CC(C)C[C@H](NC(=O)[C@H]1O[C@@H]1C(=O)O)C(=O)NCCCCN=C(N)N [E-64] | – | – | – | 0.007 | – | 0.06 |
| CCCCOc1c(N2CCC(Nc3ccnc4cc(Cl)ccc34)CC2)c(=O)c1=O | 37.9 | 45.7 | 4710 | – | 8 | – |
| O=c1c(NCCCNc2ccnc3cc(Cl)ccc23)c(NCCCNc2ccnc3cc(Cl)ccc23)c1=O | > 50 | > 50 | 99 | > 10 | > 505 | – |
